Measured values from PubChem BioAssay (NCI).
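Assay format: 96-well plates, 48-hour exposure. The concentration for 50% growth inhibition is given as GI50. TGI marks complete inhibition of growth.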

Tests used:
Assay in all cases: growth of human tumour cells (NCI), 48 h
[1] = tested on: DU-145 prostate
[2] = tested on: HCT-15 colon
[3] = tested on: KM12 colon
[4] = tested on: MCF7 breast
[5] = tested on: MDA-N
[6] = tested on: NCI-H226 lung
[7] = tested on: NCI-H460 lung
[8] = tested on: NCI-H522 lung
[9] = tested on: OVCAR-5 ovarian
[10] = tested on: SK-MEL-5 melanoma

SMILES | TGI [1] [µM] | TGI [2] [µM] | TGI [3] [µM] | TGI [4] [µM] | TGI [5] [µM] | TGI [6] [µM] | TGI [7] [µM] | TGI [8] [µM] | TGI [9] [µM] | TGI [10] [µM] | GI50 [2] [µM] | GI50 [3] [µM] | GI50 [4] [µM] | GI50 [6] [µM] | GI50 [7] [µM] | GI50 [8] [µM] | GI50 [9] [µM] | GI50 [10] [µM]
O=C1C(=Cc2ccccc2[N+](=O)[O-])N=C(c2ccccc2)N1n1c(-c2ccccc2)nc2ccccc2c1=O | > 100 | > 100 | 66.2 | 52.4 | > 100 | 85.3 | 99.1 | 31.8 | > 100 | > 100 |  |  |  |  |  |  |  | 
COc1ccc(NS(=O)c2cccc(C)c2)cc1 (centres undefined) | > 100 | > 100 | > 100 | > 100 | > 100 | > 100 | > 100 | > 100 | > 100 | 75 |  |  |  |  |  |  |  | 
COc1ccc(C2=NNC(=O)c3ccccc3N2c2nc(-c3cccs3)nc3ccc(Br)cc23)cc1 | > 100 | > 100 | > 100 | > 100 |  | 73.7 | > 100 | > 100 | > 100 | > 100 |  |  |  |  |  |  |  | 
C=C1C(=O)O[C@H]2C3C(=C(C)CC[C@@H]12)C(=O)[C@@H]1OC31C (some centres undefined) | 25.8 | 3.16 | 20.2 | 11.2 | 3.95 | 20.5 | 25.3 | 2.91 | 23.3 | 6.11 |  |  |  |  |  |  |  | 
N#Cc1c(C#N)c(-c2ccccc2)n(/N=C\c2ccccc2)c1N | > 100 | > 100 | > 100 | > 100 | > 100 | 68.7 |  | 49.5 | > 100 | 32.8 |  |  |  |  |  |  |  | 
O=S(=O)(/N=C1/SC(=Nc2ccccc2)N(c2ccccc2)/C1=N/S(=O)(=O)c1ccccc1)c1ccccc1 |  | 34.5 | 71 | 52.7 | 34.4 | 45.7 | 51.6 |  | 51.6 | 31.3 |  |  |  |  |  |  |  | 
O=C(NC/C=C/Br)NC1CCNc2ccccc21 (centres undefined) | > 100 | > 100 | > 100 | 47.9 | > 100 | > 100 | > 100 | > 100 | > 100 | 37.7 |  |  |  |  |  |  |  | 
CC1(C)N=C(N)N=C(N)N1c1ccc(OCCCOc2ccccc2)c(Cl)c1 |  | > 100 | 12.3 | 14.8 |  | 15.4 | 12.4 | 8.39 | 10.4 | 3 |  |  |  |  |  |  |  | 
CN(C)C=Nc1nncc2n[nH]nc12 | > 100 | > 100 | > 100 | > 100 | > 100 | > 100 | > 100 |  | > 100 | > 100 |  |  |  |  |  |  |  | 
COc1cc(S(=O)(=O)N/N=C/c2cc(Br)c(O)c(OC)c2)c(OC)cc1NC(C)=O | > 100 | > 100 | > 100 | > 100 | > 100 | > 100 |  |  | > 100 | > 100 |  |  |  |  |  |  |  | 
CCOC(=O)C[n+]1ccc2c([nH]c3cc(OC)ccc32)c1C |  | > 100 | > 100 | > 100 |  | > 100 | > 100 | > 100 | > 100 | > 100 |  |  |  |  |  |  |  | 
CC1(C)CC2(C)OC(=N)C1(C#N)C2(C#N)C#N (centres undefined) | 27.7 | 4.84 | 29.4 | 24.8 | 20.2 |  |  | 8.38 | 27.3 | 21 |  |  |  |  |  |  |  | 
NC1CCCCC1N.O=S(=O)([O-])CCCN1CCN(CCO)CC1.O=S(=O)([O-])CCCN1CCN(CCO)CC1.[Pt+4] |  | > 61.4 | > 100 | > 100 |  | > 100 | > 46 | 17.9 | > 38.7 | 17.2 | 2.63 | 13.2 | 3.26 | 5.26 | 1.15 | 2.73 | 8.22 | 2.57
COc1ccc(N2C(=O)C(N3C(=O)C=CC3=O)C2C=O)cc1 (centres undefined) |  | > 100 | > 100 |  |  |  | > 100 | > 100 | > 100 | > 100 |  |  |  |  |  |  |  | 
CCCCCCc1cn([C@H]2C[C@H](O)[C@@H](CO)O2)c(=O)[nH]c1=O |  | > 100 | > 100 | > 100 |  | > 100 | > 100 | > 100 | > 100 | > 100 |  |  |  |  |  |  |  | 
CSC1NNC2(C(=O)N1)c1ccccc1-c1ccccc12 (centres undefined) | > 10 | > 10 | > 10 | > 10 | > 10 | > 10 | > 10 | > 10 |  | > 10 |  |  |  |  |  |  |  | 
O=C1OC(c2ccccc2)=N/C1=C/N1CCCC1C(=O)O (centres undefined) |  | > 100 | > 100 |  |  | > 100 | > 100 | > 100 | > 100 | > 100 |  |  |  |  |  |  |  | 
COc1cccc2c1[C@]1(O)C(O)CCCC21 (some centres undefined) |  | > 100 | > 100 |  |  | > 100 | > 100 | > 100 | > 100 | > 100 |  |  |  |  |  |  |  | 
C=CCn1c(=O)c2ccccc2[n+]2c(-c3cccc([N+](=O)[O-])c3)csc12 | > 100 |  | > 100 | > 100 | > 100 | > 100 | > 100 | > 100 | > 100 | 36.5 |  |  |  |  |  |  |  | 
O=C(C=P(c1ccccc1)(c1ccccc1)c1ccccc1)c1ccc(-c2ccc(F)cc2F)cc1 | 16.2 | 7.81 | 13.8 | 7.95 | 8.8 | 7.16 | 4.09 |  | 9.29 | 3.55 |  |  |  |  |  |  |  | 
C/C(=C\CNc1nc(Cl)nc2nc[nH]c12)CO | > 100 |  | > 100 | > 100 | > 100 | > 100 | > 100 | > 100 | > 100 | > 100 |  |  |  |  |  |  |  | 
O=C1OC2C=CC1C1(CCOC1=O)C2 (centres undefined) |  | > 100 | > 100 |  |  | > 100 | > 100 | > 100 | > 100 | > 100 |  |  |  |  |  |  |  | 
